The subject of data set [1] is human Mo-DCs. Kind of data set: Flow cytometry of cell surface markers on treated, LPS-matured Mo-DCs. The settings on record: surface marker; treated and LPS-induced DCs. The arrangement: key to HLA-DR / CD40 / CD83 / CD86 / CD14 / CD1a / CCR7: (−) negligible; (+) low; (++) moderate; (+++) high. Format: cell-based. How it is done: Peripheral blood mononuclear cells (PBMCs) were obtained from buffy coat preparations belonging to healthy donors from the Blood and Tissue Bank (Barcelona, Spain) after Ficoll-Paque™ density centrifugation (GE Healthcare Bio-Sciences AB; Uppsala, Sweden). Monocytes were purified by two different methods: 1) Cells were plated at 1×10^6 cells/ml in 60 mm culture plates (Corning, Spain) in RPMI without serum and allowed to adhere for 2 h at 37° C. in 5% CO2. The non-adherent cells were removed by washing in PBS. […] 2) Cells were purified using colloidal super-paramagnetic microbeads conjugated with monoclonal mouse anti-human CD14 antibodies (MACS, Miltenyi Biotec, Auburn, Calif., or EasySep® Positive Selection Cocktail, StemCell Technologies, Grenoble, France). The purity of CD14^+ cells was tested by CD14 staining and flow cytometry analysis (>90% CD14^+ cells). Monocyte-derived DCs (Mo-DCs) were generated supplementing the monocyte cultures with complete RPMI 1640 medium plus GM-CSF (800 UI/ml) and IL-4 (500 UI/ml) (both from Gentaur, Kampenhout, Belgium) at day 0 and day 3 of culture. For DC maturation, at day 5 iDCs were further stimulated for 48 h with 5 μg/ml LPS (Escherichia coli 055.B5, Sigma L2880, Copenhagen, Denmark).
Cell surface phenotypes were analyzed using the following monoclonal antibodies: FITC-conjugated anti-HLA-DR (Immu-357), FITC-conjugated anti-CD83 (HB15a), FITC-conjugated anti-CD14 (RMO52), PE-conjugated anti-CD40 (MAB89), PE-conjugated anti-CD1a (BL6), PE-conjugated anti-CD80 (MAB104), PE-conjugated anti-CD86 (HA5.2B7) (all from Beckman-Coulter), Alexa Fluor 488-conjugated anti-CCR7 (TG8/CCR7, Biolegend, San Diego, Calif.), and the respective isotype controls from the same commercial sources. After washing with PBS, cells were subsequently stained with 3 μl MoAb/10^5 cells in 100 μl of FACS buffer (PBS containing 1% BSA and 0.1% sodium azide) for 20 min at room temp. Stained cells were analysed using a FACScalibur (Becton Dickinson). Mo-DCs were gated according to forward scatter (FSC) and side scatter (SSC) parameters. The results were analysed using CellQuestPro software (Becton Dickinson).
Both the different C4BP isoforms (α7β1, α7β0 and α6β0), and Factor H were added at 2, 5 and 10 μg/ml throughout Mo-DC differentiation, maturation, or both. Namely, for the differentiation assays the proteins were added at day 0 and replenished at day 3. For the maturation assays the proteins were added at day 5, either alone or combined with LPS. Finally, for the differentiation plus maturation assays the proteins were added at days 0, 3 and 5 (at the last time point, combined with LPS).

The subject of data set [2] is human Mo-DCs. Kind of data set: Apoptosis determination (Annexin V / 7-ADD). It is filed as cell-based. The arrangement: key: (−) negligible; (+) low; (++) moderate; (+++) high. The following applies: viability; treated and LPS-induced DCs. The source says: Double staining using with the fluorescent dyes Annexin V (Annexin V-PE Apoptosis Detection Kit I, BD Pharmigen, San Diego, Calif.) and 7-amino-actinomycin D (7-ADD) (BD Pharmigen), and flow cytometry analysis, was employed to assess the viability/apoptosis status of C4BP α7β1-, C4BP α7β0-, recC4BP α6β0-, or Factor H-treated and untreated Mo-DCs.

A further data set relates to allogeneic CD3+ T cells. Kind of data set: Mixed leukocyte reaction ([3H]-thymidine incorporation). The arrangement: key to Alloproliferation (T CD3^+): (−) negligible; (+) low; (++) moderate; (+++) high. The following applies: functional assay; treated and LPS-induced DCs. Format: cell-based, human. How it is done:
CD3^+ T cells (10^5/well) and C4BP-treated (α7β1 and α7β0), or Factor H-treated, and LPS-activated Mo-DCs were seeded in a 96-well round-bottom plate at various DC:T cell ratios (1:40, 1:80 and 1:160) and cultured in X-VIVO 15 medium (Biowittaker, Walkersville, Md.) supplemented with 100 μg/ml of streptomycin, 100 IU/ml of penicillin and 2 mM L-glutamine (all from Invitrogen) plus 2% Human AB Serum. Allospecific proliferation was measured after 5 days of incubation. At day 4, the […] [^3H]-thymidine (1 μCi/well, Perkin Elmer, Boston, Mass.) was added, followed by incubation for another 16 h. Labeled cells were then harvested onto glass-fiber filters with a Filtermate Harvester (Packard, Meriden, Conn.), and the T cell proliferation rate was determined by the amount of [^3H]-thymidine incorporation, which was measured in a TopCount NXT counter (Packard). Results are reported as the mean cpm±SD of thymidine incorporation in quadruplicate culture wells.

The subject of data set [3] is human Mo-DCs. More on the design: key: (−) negligible; (+) low; (++) moderate; (+++) high. The following applies: Vit D3-treated and LPS-induced DCs; data from Heitger (2011); cited from earlier work.
The next data set relates to LPS-matured human Mo-DCs. More on the design: key: (−) negligible; (+) low; (++) moderate; (+++) high. The settings on record: cytokine; Vit D3-treated and LPS-induced DCs; data from Naranjo-Gomez et al. (2011); cited from earlier work.

Molecules are shown by their SMILES.

On to `C=C1/C(=C\C=C2/CCC[C@]3(C)[C@@H]([C@H](C)CCCC(C)(C)O)CC[C@@H]23)C[C@@H](O)C[C@@H]1O` [Vit D3, calcitriol, reference compound], for which, in the data set with human Mo-DCs [1], the CCR7 entry was “++”, the CD1a result is reported as “−”, the CD14 result is recorded as “+” and the CD40 result is listed as “+”. Besides, in the data set on human Mo-DCs [1], the CD83 result is reported as “+”, the CD86 result is on record as “−” and the HLA-DR entry was “+”. Moreover, the Apoptosis after treatment entry with human Mo-DCs [2] is reported as “+”. For the same molecule, the “Alloproliferation (T CD3^+)” value in the data set on allogeneic CD3+ T cells is recorded as “−”. In addition, in the data set on human Mo-DCs [3], the IDO entry is reported as “+++ (**)”. In the data set with LPS-matured human Mo-DCs, the IL-10 result is reported as “++ (*)” and the IL-12 entry was “− (*)”.

These data come from US10106589B2, “Compositions and methods for immunomodulation” (FUNDACIO INSTITUT D'INVESTIGACIO BIOMEDICA DE BELLVITGE …, priority 2011, dated 2018).
